pIC50: −log10 of the molar value. Where only a bound is given, the exact number is not on record here.

Holding throughout (assay type): biochemical
Common to all, as to conditions: ADP-Glo SIK kinase assay
(In general: ADP-Glo first removes unused ATP, then detects ADP through luciferase.)

One assay addresses T1, SIK3 (Homo sapiens, UniProt Q9Y2K2).
T1 construct: purchased SignalChem S12-11G-100
Nature of the assay: ADP-Glo kinase assay, SIK3. An outline of the steps: (§1)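 Kinase reactions (enzyme-substrate mix plus ATP) ran 120 min at room temperature for each of SIK3 and SIK2. Signal came from ADP-Glo: unconsumed ATP removed (40 min), ADP reconverted and detected by luciferase/luciferin (30 min), with luminescence tracking kinase activity. 10 μM staurosporine and 1% DMSO (final) served as controls.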

Another assay concerns the target T2, SIK1 (Homo sapiens, UniProt P57059).
T2 construct: purchased Carna Biosciences 02-131
Description: ADP-Glo kinase assay, SIK1. An outline of the steps:
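Enzyme–substrate mix was started with ATP and incubated 120 min at RT. ADP formed was quantified by ADP-Glo: 40 min ATP depletion, then 30 min detection reagent converting ADP to ATP for luciferase luminescence, which rises with kinase activity. Controls: 1% DMSO and 10 μM staurosporine (final).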

Another assay has as its target T3, SIK2 (Homo sapiens, UniProt Q9H0K1).
T3 construct: purchased ThermoFisher Scientific PV4792
Nature of the assay: ADP-Glo kinase assay, SIK2. An outline of the steps: as §1

T2 sequence (P57059 whole entry): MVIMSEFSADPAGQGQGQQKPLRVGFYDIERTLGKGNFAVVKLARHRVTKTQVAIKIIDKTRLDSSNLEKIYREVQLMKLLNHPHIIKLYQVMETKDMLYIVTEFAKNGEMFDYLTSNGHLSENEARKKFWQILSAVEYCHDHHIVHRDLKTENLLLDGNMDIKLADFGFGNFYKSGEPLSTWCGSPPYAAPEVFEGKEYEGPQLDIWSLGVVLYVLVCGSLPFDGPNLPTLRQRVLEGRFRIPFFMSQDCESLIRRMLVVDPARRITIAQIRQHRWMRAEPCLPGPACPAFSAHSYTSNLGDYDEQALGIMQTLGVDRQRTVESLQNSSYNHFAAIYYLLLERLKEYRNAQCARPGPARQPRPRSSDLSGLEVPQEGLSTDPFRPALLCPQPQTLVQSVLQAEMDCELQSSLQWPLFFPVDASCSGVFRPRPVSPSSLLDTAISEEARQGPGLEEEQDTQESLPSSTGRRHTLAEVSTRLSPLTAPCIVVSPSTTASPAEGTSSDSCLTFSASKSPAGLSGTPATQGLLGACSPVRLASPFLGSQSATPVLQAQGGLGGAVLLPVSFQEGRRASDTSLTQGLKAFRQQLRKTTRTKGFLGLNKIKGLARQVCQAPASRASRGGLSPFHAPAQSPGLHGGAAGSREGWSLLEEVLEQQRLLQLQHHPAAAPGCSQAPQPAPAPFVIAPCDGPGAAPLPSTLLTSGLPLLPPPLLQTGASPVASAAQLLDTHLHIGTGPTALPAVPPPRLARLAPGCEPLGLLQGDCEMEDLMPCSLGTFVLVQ
T1 sequence (Q9Y2K2 whole entry): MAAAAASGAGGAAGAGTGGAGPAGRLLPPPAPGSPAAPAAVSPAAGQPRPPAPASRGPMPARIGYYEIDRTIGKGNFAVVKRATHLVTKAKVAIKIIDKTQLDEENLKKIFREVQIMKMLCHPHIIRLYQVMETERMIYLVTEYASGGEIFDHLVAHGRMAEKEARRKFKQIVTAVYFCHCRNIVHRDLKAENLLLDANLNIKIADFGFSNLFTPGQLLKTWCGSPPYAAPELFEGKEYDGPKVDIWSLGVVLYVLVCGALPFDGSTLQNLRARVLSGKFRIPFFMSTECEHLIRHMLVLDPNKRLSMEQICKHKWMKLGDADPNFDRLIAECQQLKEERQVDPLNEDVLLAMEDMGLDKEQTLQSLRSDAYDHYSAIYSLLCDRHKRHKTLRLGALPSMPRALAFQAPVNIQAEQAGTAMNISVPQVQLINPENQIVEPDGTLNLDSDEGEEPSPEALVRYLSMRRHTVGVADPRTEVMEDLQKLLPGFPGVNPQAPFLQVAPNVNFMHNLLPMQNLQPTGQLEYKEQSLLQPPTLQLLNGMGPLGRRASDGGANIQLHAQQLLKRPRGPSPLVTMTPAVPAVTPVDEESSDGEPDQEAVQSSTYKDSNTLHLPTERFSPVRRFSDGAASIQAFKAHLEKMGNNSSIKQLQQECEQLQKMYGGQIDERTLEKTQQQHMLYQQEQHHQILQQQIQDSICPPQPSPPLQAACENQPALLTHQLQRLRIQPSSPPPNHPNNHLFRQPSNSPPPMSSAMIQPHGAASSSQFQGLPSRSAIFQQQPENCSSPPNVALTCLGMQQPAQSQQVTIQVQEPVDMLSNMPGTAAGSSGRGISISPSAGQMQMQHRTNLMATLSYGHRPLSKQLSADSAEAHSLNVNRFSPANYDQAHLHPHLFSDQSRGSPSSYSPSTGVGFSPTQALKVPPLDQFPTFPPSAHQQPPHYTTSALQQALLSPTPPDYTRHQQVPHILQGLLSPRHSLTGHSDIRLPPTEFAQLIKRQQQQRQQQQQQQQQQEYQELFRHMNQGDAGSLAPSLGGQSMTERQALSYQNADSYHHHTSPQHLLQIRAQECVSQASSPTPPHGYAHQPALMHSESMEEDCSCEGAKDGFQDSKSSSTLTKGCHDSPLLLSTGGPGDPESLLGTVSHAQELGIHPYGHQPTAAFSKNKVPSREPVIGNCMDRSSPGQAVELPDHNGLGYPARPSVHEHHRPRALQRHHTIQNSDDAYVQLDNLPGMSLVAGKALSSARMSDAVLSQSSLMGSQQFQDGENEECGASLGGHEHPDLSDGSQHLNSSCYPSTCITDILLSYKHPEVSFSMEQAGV
T3 sequence (Q9H0K1 whole entry): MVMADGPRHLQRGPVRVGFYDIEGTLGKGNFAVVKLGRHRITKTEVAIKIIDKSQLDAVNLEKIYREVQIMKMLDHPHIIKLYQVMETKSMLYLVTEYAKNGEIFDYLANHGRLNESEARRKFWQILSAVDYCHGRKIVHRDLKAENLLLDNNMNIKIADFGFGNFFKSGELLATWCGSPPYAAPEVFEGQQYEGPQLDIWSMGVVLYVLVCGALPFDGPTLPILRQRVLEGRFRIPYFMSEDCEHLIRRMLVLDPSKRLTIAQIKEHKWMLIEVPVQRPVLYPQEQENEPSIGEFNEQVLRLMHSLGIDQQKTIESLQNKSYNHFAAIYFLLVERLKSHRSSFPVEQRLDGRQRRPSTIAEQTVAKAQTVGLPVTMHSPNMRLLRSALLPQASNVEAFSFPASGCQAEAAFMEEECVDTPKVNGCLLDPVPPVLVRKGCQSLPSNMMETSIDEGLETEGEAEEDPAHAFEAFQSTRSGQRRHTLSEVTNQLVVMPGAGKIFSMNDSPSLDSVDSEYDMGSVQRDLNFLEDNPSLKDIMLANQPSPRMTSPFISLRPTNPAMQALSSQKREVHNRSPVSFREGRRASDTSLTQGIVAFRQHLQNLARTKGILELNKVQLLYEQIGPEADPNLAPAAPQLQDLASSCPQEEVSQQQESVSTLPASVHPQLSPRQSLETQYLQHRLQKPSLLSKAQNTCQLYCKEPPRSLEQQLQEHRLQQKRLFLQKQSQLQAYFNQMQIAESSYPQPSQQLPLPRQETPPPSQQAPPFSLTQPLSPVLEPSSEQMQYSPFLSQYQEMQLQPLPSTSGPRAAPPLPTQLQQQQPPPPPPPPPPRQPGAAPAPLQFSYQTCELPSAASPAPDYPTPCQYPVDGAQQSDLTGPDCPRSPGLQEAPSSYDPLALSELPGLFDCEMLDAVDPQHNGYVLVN

What is called pIC50 is −log10 of the IC50, conventionally taken in molar units. A higher pIC50 goes with a low IC50. `COc1cc(-c2cnc3cc(OCC(N)C4CCOC4)ccn23)cc(OC(F)F)c1C(=O)NC1CC1` (stereo not drawn) [compound 134, 4-[7-(2-amino-2-tetrahydrofuran-3-yl-ethoxy)imidazo[1,2-a]pyridin-3-yl]-N-cyclopropyl-2-(difluoromethoxy)-6-methoxy-benzamide]: the pIC50 against SIK3 is 8.00 to 11.00; against SIK1, 7.00 to 8.00; against SIK2 it was 8.00 to 11.00.

In the case of `COc1cc(-c2cnc3cc(OCC(N)C4CCOCC4)ccn23)cc(OC(F)F)c1C(=O)NC1CC1` (stereo not drawn) [compound 135, 4-[7-(2-amino-2-tetrahydropyran-4-yl-ethoxy)imidazo[1,2-a]pyridin-3-yl]-N-cyclopropyl-2-(difluoromethoxy)-6-methoxy-benzamide], the negative logarithm of the IC50 (pIC50) against SIK3 was 8.00 to 11.00; against SIK1, 7.00 to 8.00; against SIK2, 8.00 to 11.00.

`COc1cc(-c2cnc3cc(OCC(N)C4CCCO4)ccn23)cc(OC(F)F)c1C(=O)NC1CC1` (stereo not drawn) [compound 136, 4-[7-(2-amino-2-tetrahydrofuran-2-yl-ethoxy)imidazo[1,2-a]pyridin-3-yl]-N-cyclopropyl-2-(difluoromethoxy)-6-methoxy-benzamide]: the values for the pIC50 against SIK3, on SIK1 and at SIK2 were 8.00 to 11.00, 7.00 to 8.00 and 8.00 to 11.00, respectively.

In the case of `COc1cc(-c2cnc3cc(OCC(N)C4CC4)ccn23)cc(OC(F)F)c1C(=O)NC1CC1` (stereo not drawn) [compound 137, 4-[7-(2-amino-2-cyclopropyl-ethoxy)imidazo[1,2-a]pyridin-3-yl]-N-cyclopropyl-2-(difluoromethoxy)-6-methoxy-benzamide], the pIC50 was 8.00 to 11.00 against SIK3, 7.00 to 8.00 against SIK1 and 8.00 to 11.00 at SIK2.

As to `CCOc1cc(-c2cnc3cc(OCCN(C)C)ccn23)cc2c1C(=O)N(CC(F)(F)F)CC2` [compound 140, 6-[7-[2-(dimethylamino)ethoxy]imidazo[1,2-a]pyridin-3-yl]-8-ethoxy-2-(2,2,2-trifluoroethyl)-3,4-dihydroisoquinolin-1-one], the pIC50 against SIK3 was 6.30 to 7.00; against SIK1, under 6.30; on SIK2 it was 7.00 to 8.00.

For the compound `COc1cc(-c2cnc3cc(OCC4CCCN(C=O)C4)ccn23)cc(OC(F)F)c1C(=O)NC1CC1` (stereo not drawn) [compound 142, N-cyclopropyl-2-(difluoromethoxy)-4-[7-[(1-formyl-3-piperidyl)methoxy]imidazo [1,2-a]pyridin-3-yl]-6-methoxy-benzamide], the pIC50 on SIK3, at SIK1 and at SIK2 was 8.00 to 11.00 each time.

Consider `COc1cc(-c2cnc3cc(OCC4CCCNC4)ccn23)cc(OC(F)F)c1C(=O)NC1CC1` (stereo not drawn) [compound 143, N-cyclopropyl-2-(difluoromethoxy)-6-methoxy-4-[7-(3-piperidylmethoxy)imidazo[1,2-a]pyridin-3-yl]benzamide], for which the pIC50 against SIK3, against SIK1 and on SIK2 was 8.00 to 11.00 in each case.

Consider `COc1cc(-c2cnc3cc(OCC4CCN(C)C4)ccn23)cc(OC(F)F)c1C(=O)NC1CC1` (stereo not drawn) [compound 144, N-cyclopropyl-2-(difluoromethoxy)-6-methoxy-4-[7-[(1-methylpyrrolidin-3-yl)methoxy]imidazo[1,2-a]pyridin-3-yl]benzamide], for which the pIC50 against SIK3 was 8.00 to 11.00; against SIK1, 7.00 to 8.00; against SIK2, 8.00 to 11.00.

With `COc1cc(-c2cnc3cc(Oc4ccccn4)ccn23)cc(OC(F)F)c1C(=O)NC1CC1` [compound 145, N-cyclopropyl-2-(difluoromethoxy)-6-methoxy-4-[7-(2-pyridyloxy)imidazo[1,2-a]pyridin-3-yl]benzamide], the pIC50 against SIK3 is 7.00 to 8.00; against SIK1 it was 6.30 to 7.00; on SIK2, 7.00 to 8.00.

For the compound `CN(C)CCOc1ccn2c(-c3cc(F)c(C(=O)NC4CC4)c(OC(F)F)c3)cnc2c1` [compound 146, N-cyclopropyl-2-(difluoromethoxy)-4-[7-[2-(dimethylamino)ethoxy]imidazo[1,2-a]pyridin-3-yl]-6-fluoro-benzamide], the pIC50 against SIK3 is 7.00 to 8.00; on SIK1 it was under 6.30; on SIK2, 7.00 to 8.00.

Turning to `COc1cc(-c2cnc3cc(OCC4CCCCN4C(C)C)ccn23)cc(OC(F)F)c1C(=O)NC1CC1` (stereo not drawn) [compound 148, N-cyclopropyl-2-(difluoromethoxy)-4-[7-[(1-isopropyl-2-piperidyl)methoxy]imidazo [1,2-a]pyridin-3-yl]-6-methoxy-benzamide], the negative-log IC50 (pIC50) is 8.00 to 11.00 against SIK3, 6.30 to 7.00 on SIK1 and 8.00 to 11.00 against SIK2.

Turning to `COc1cc(-c2cnc3cc(OCC4CCCCN4CC(F)F)ccn23)cc(OC(F)F)c1C(=O)NC1CC1` (stereo not drawn) [compound 149, N-cyclopropyl-4-[7-[[1-(2,2-difluoroethyl)-2-piperidyl]methoxy]imidazo [1,2-a]pyridin-3-yl]-2-(difluoromethoxy)-6-methoxy-benzamide], the pIC50 against SIK3 was 8.00 to 11.00; against SIK1 it was 7.00 to 8.00; against SIK2 it was 7.00 to 8.00.

Consider `COc1cc(-c2cnc3cc(OC4CCC4)ccn23)cc(OC(F)F)c1C(=O)NC1CC1` [compound 151, 4-[7-(cyclobutoxy)imidazo[1,2-a]pyridin-3-yl]-N-cyclopropyl-2-(difluoromethoxy)-6-methoxy-benzamide], for which the negative-log IC50 (pIC50) is 8.00 to 11.00 on SIK3, 7.00 to 8.00 against SIK1 and 8.00 to 11.00 at SIK2.

Regarding `COc1cc(-c2cnc3cc(OC4COC4)ccn23)cc(OC(F)F)c1C(=O)NC1CC1` [compound 152, N-cyclopropyl-2-(difluoromethoxy)-6-methoxy-4-[7-(oxetan-3-yloxy)imidazo[1,2-a]pyridin-3-yl]benzamide], the pIC50 against SIK3 was 8.00 to 11.00; on SIK1, 7.00 to 8.00; against SIK2 it was 7.00 to 8.00.

As to `CN(C)CCOc1ccn2c(-c3cc(F)c(C(=O)NCC(F)(F)F)c(OC(F)F)c3)cnc2c1` [compound 155, 2-(difluoromethoxy)-4-[7-[2-(dimethylamino)ethoxy]imidazo[1,2-a]pyridin-3-yl]-6-fluoro-N-(2,2,2-trifluoroethyl)benzamide], the pIC50 on SIK3 is 7.00 to 8.00; on SIK1 it was under 6.30; at SIK2, 7.00 to 8.00.

In the case of `COc1cc(-c2cnc3cc(Oc4ccccc4)ccn23)cc(OC(F)F)c1C(=O)NC1CC1` [compound 157, N-cyclopropyl-2-(difluoromethoxy)-6-methoxy-4-(7-phenoxyimidazo[1,2-a]pyridin-3-yl)benzamide], the pIC50 is 8.00 to 11.00 on SIK3, 6.30 to 7.00 on SIK1 and 6.30 to 7.00 at SIK2.

In the case of `CNC1CC(Oc2ccn3c(-c4cc(OC)c(C(=O)NC5CC5)c(OC(F)F)c4)cnc3c2)C1` (stereo not drawn) [compound 161, N-cyclopropyl-2-(difluoromethoxy)-6-methoxy-4-[7-[3-(methylamino)cyclobutoxy]imidazo[1,2-a]pyridin-3-yl]benzamide], the pIC50 on SIK3 is 8.00 to 11.00; against SIK1, 7.00 to 8.00; at SIK2 it was 8.00 to 11.00.

Take `COc1cc(-c2cnc3cc(OC4CC5(COC5)C4)ccn23)cc(OC(F)F)c1C(=O)NC1CC1` [compound 162, N-cyclopropyl-2-(difluoromethoxy)-6-methoxy-4-[7-(2-oxaspiro[3.3]heptan-6-yloxy)imidazo[1,2-a]pyridin-3-yl]benzamide]: the pIC50 at SIK3 is 8.00 to 11.00; against SIK1, 7.00 to 8.00; against SIK2, 7.00 to 8.00.

With `COc1cc(-c2cnc3cc(OC4CCOC4)ccn23)cc(OC(F)F)c1C(=O)NC1CC1` (stereo not drawn) [compound 163, N-cyclopropyl-2-(difluoromethoxy)-6-methoxy-4-(7-tetrahydrofuran-3-yloxyimidazo[1,2-a]pyridin-3-yl)benzamide], the pIC50 is 8.00 to 11.00 at SIK3, 7.00 to 8.00 against SIK1 and 7.00 to 8.00 against SIK2.

For `COc1cc(-c2cnc3cc(OC4CC(C#N)C4)ccn23)cc(OC(F)F)c1C(=O)NC1CC1` (stereo not drawn) [compound 164, 4-[7-(3-cyanocyclobutoxy)imidazo [1,2-a]pyridin-3-yl]-N-cyclopropyl-2-(difluoromethoxy)-6-methoxy-benzamide], the pIC50 on SIK3 is 8.00 to 11.00; against SIK1, 7.00 to 8.00; on SIK2, 8.00 to 11.00.

Take `COc1cc(-c2cnc3cc(OCC4(N)CCCCC4)ccn23)cc(OC(F)F)c1C(=O)NC1CC1` [compound 169, 4-[7-[(1-aminocyclohexyl)methoxy]imidazo[1,2-a]pyridin-3-yl]-N-cyclopropyl-2-(difluoromethoxy)-6-methoxy-benzamide]: the values for the pIC50 against SIK3, on SIK1 and against SIK2 were 8.00 to 11.00, 6.30 to 7.00 and 7.00 to 8.00, respectively.

On to `COc1cc(-c2cnc3cc(OCC4(N)COC4)ccn23)cc(OC(F)F)c1C(=O)NC1CC1` [compound 170, 4-[7-[(3-aminooxetan-3-yl)methoxy]imidazo[1,2-a]pyridin-3-yl]-N-cyclopropyl-2-(difluoromethoxy)-6-methoxy-benzamide], for which the pIC50 on SIK3 is 8.00 to 11.00; on SIK1, 7.00 to 8.00; against SIK2, 8.00 to 11.00.

Take `COc1cc(-c2cnc3cc(OCC4(N)CC4)ccn23)cc(OC(F)F)c1C(=O)NC1CC1` [compound 171, 4-[7-[(1-aminocyclopropyl)methoxy]imidazo[1,2-a]pyridin-3-yl]-N-cyclopropyl-2-(difluoromethoxy)-6-methoxy-benzamide]: the pIC50 against SIK3 is 8.00 to 11.00; against SIK1, 7.00 to 8.00; at SIK2 it was 8.00 to 11.00.

As to `COc1cc(-c2cnc3cc(OCC4(N)CCC4)ccn23)cc(OC(F)F)c1C(=O)NC1CC1` [compound 174, 4-[7-[(1-aminocyclobutyl)methoxy]imidazo[1,2-a]pyridin-3-yl]-N-cyclopropyl-2-(difluoromethoxy)-6-methoxy-benzamide], the pIC50 on SIK3 is 8.00 to 11.00; against SIK1, 6.30 to 7.00; at SIK2, 8.00 to 11.00.

Source of the values: patent publication US12264156B2, “Compounds and pharmaceutical compositions thereof for the treatment of diseases” (GALAPAGOS NV, priority 2018, dated 2025).
